Measurements from paper PMC11524579, “PRR adjuvants restrain high stability peptides presentation on APCs” (eLife, 2024).

Columns and labels:
[1] = tested on: CD4+ T-cells; assay: IFN-γ ICS screen of UreB overlapping 18mer peptides on T-cells from adjuvant-vaccinated mice; assay type: cell-based, BALB/c mice; conditions: spleens day 10, expanded in vitro, 5 μM peptide 5 hr, ICS flow cytometry; for IFN-γ response of CD4+ T-cells to UreB 18mer peptides, MDP group: T-cells from mice vaccinated with UreB + MDP; for IFN-γ response of CD4+ T-cells to UreB 18mer peptides, MDP group / IFN-γ response of CD4+ T-cells to UreB 18mer peptides, CpG group / IFN-γ response of CD4+ T-cells to UreB 18mer peptides, MPLA group: representative of three independent experiments; for IFN-γ response of CD4+ T-cells to UreB 18mer peptides, CpG group: T-cells from mice vaccinated with UreB + CpG; for IFN-γ response of CD4+ T-cells to UreB 18mer peptides, MPLA group: T-cells from mice vaccinated with UreB + MPLA
Experimental: (§1) Six- to eight-week-old SPF female BALB/c mice were immunized subcutaneously with 100 μg recombinant H pylori UreB (rUreB, purity >95%) emulsified in adjuvants CpG (20 μg/ mouse), MDP (30 μg/ mouse), and MPLA (10 μg/ mouse). Mice immunized with the same antigen without adjuvants were used as controls. Ten days later, the mice were euthanized with Carbon Dioxide (CO₂), and their spleens were harvested. Antigen-specific T-cells were expanded in vitro as described previously ([Li et al., 2015]). Briefly, the lymphocytes from spleens were isolated using a Ficoll–Hypaque (Dakewe, Shanghai, China) gradient, pulsed with 0.5 μM rUreB protein in the presence of 5 U/mL rmIL-2 (PeproTech, NJ, USA), and in vitro cultured in ‘RF-10’ medium consisting of RPMI 1640 (Gibco, CA, USA) supplemented with 10% fetal calf serum (Gibco), 1% L-glutamine, 1x 2-mercaptoethanol (Gibco), and 100 U/mL penicillin/ streptomycin. On day 5, the live cells were collected using a Ficoll–Hypaque gradient and cultured in a complete medium containing 20 U/mL rmIL-2. Half the medium was replaced when required.
Bulk-cultured T-cells were stimulated with 5 μM peptides for 5 hr in the presence of brefeldin A (BioLegend). The cells were collected and stained with specific antibodies against surface markers. Intracellular cytokine staining was performed after fixation. Cells were acquired using an LSRFortessa Flow Cytometer (BD Biosciences) or a Navios Flow Cytometer (Beckman Coulter, FL, USA). The data were analyzed using FlowJo software (Tree Star, CA, USA).

[2] = tested on: splenocytes; assay: IFN-γ ELISpot of splenocytes from peptide-pool immunized mice; assay type: in vivo; conditions: five BALB/c mice immunized with pool of 10 peptides (50 μg each) in CFA; for IFN-γ ELISpot response, day 10 (effective phase): threshold 3x median of OVA peptide
Experimental: Six- to eight-week-old SPF female BALB/c mice were immunized subcutaneously with a pool of synthetic peptides (50 μg for each peptide) emulsified in Complete Freunds Adjuvant (Sigma-Aldrich). At 10 and 28 days post-vaccination, the mice were euthanized, and the spleens were removed for ELISpot assays.
Splenocytes (500,000 cells/well) were treated with red blood cell lysis buffer and stimulated with 5 μM peptides in triplicate in ELISpot plates (Dakewe Biotech, Shenzhen, China) for 18 hr. IFN-γ secretion was detected using capture and detection antibodies and imaged using an ELISpot & FluoroSpot Reader (Mabtech, Stockholm, Sweden). OVA peptide323–339 (ISQAVHAAHAEINEAGR) and non-stimulated wells were used as negative controls. PMA (BioGems, NJ, USA) was used as a positive control.

[3] = tested on: MHC-II H2-IA allele; assay: MHC-II competition-binding assay in vitro; conditions: competition with 0.1 μM biotin-labeled control peptide, 50 nM purified MHC-II, 37 °C 24 hr, europium fluorescence; eight concentrations, three independent experiments
[4] = tested on: A20 cells; assay: Whole-proteome LC-MS/MS of adjuvant-treated APCs, bacterial protein abundance; assay type: cell-based, Mus musculus; conditions: A20 cells 12 hr post-adjuvant stimulation with H. pylori antigens
Experimental: (§2) A20 cells were cultured in T75 cell culture flasks (Corning, NY, USA). The expanded cells were pulsed with H. pylori lysates in combination with adjuvants MPLA, MDP, or CpG for 12 hr, collected, washed twice with sterile PBS, and divided into two fractions. One fraction, approximately 10^7 cells, was used for whole-proteome analysis. The remaining 10^8 cells were lysed in cold lysis buffer (1.0% w/v CHAPS, Protease Inhibitor tablet, and PMSF) for MHC-II complex immunoprecipitation. The cell lysates were centrifuged at 18,000×g for 20 min. The supernatant (containing the MHC–peptide complexes) was transferred into a new 1.5 mL microcentrifuge tube (Corning) containing a mixture of Sepharose CNBr-activated beads (Cytivia, Utah, USA) and 2 mg Anti-Mouse H2-IA^d/IE^d (M5/114) antibody (BioXcell, NH, USA). The immune complexes were captured on the beads by incubating on a rotor at 4℃ for 18 hr. Sequentially, the immune complexes were transferred to a polypropylene column (Bio-Rad Laboratories, Hercules, CA, USA) and washed with 10 mL buffer A (150 mM NaCl, 20 mM Tris, pH 8.0), 10 mL buffer B (400 mM NaCl, 20 mM Tris, pH 8.0), 10 mL buffer A, and 10 mL buffer C (Tris 20 mM, pH 8.0). The MHC-II–peptide complexes were eluted with 300 µL 10% glacial acetic acid (Macklin, Shanghai, China) three times. The eluate was stored at −80℃ until mass spectrometry analysis was performed.
Protein aliquots were mixed with 200 μL 8 M urea in Nanosep Centrifugal Devices (PALL) and centrifuged at 12,000×g at 20℃ for 20 min. All the centrifugation steps were performed under the same conditions, allowing for maximal concentration. Then, 200 μL 8 M urea solution with 10 mM DTT was added, and the reduction reaction was performed for 2 hr at 37°C. The solution was removed by centrifugation and 200 μL 8 M urea solution with 50 mM iodoacetamide (IAA) was added. The samples were incubated in the dark for 15 min at room temperature. The ultra-fraction tube was washed with 200 μL 8 M urea three times and 200 μL 25 mM ammonium bicarbonate three times by centrifugation at 12,000×g for 20 min at room temperature. […]

[5] = tested on: A20 cells; assay: MHC-II immunopeptidome (LC-MS/MS) of adjuvant-treated APCs; assay type: cell-based, Mus musculus
Experimental: as §2, with “performed. […]” for “performed.”

[6] = tested on: CD4+ T-cells; assay: IFN-γ ICS of in vitro expanded peptide-specific CD4+ T-cells, peptide pool and titrated peptides; assay type: cell-based, BALB/c mice; conditions: titrated peptides, response at 50 μM taken as 100%, n=3, ICS flow cytometry; compared with ureA #2 and ureA #3
Experimental: as §1
Bulk-cultured T-cells were stimulated with 5 μM peptides for 5 hr in the presence of brefeldin A (BioLegend). The cells were collected and stained with specific antibodies against surface markers. […] The data were analyzed using FlowJo software (Tree Star, CA, USA). […]

U409–426: UreB overlapping 18mer peptide (YTINPAIAHGISEYVGSV; UniProt P69996 409-426, looked up, fragment)
IFN-γ response of CD4+ T-cells to UreB 18mer peptides, MDP group [1]: dominant response

ASMIHEVGIEAMFPDGTK [ureA #2]
IFN-γ ELISpot response, day 10 (effective phase) [2]: positive responses
Binding stability for MHC-II [3]: highly stable

U481–498: UreB overlapping 18mer peptide (HHGKAKYDANITFVSQAA; UniProt P69996 481-498, looked up, fragment)
IFN-γ response of CD4+ T-cells to UreB 18mer peptides, MDP group [1]: dominant response

U313–330: UreB overlapping 18mer peptide (EHMDMLMVCHHLDKSIKE; UniProt P69996 313-330, looked up, fragment)
IFN-γ response of CD4+ T-cells to UreB 18mer peptides, CpG group [1]: dominant response
IFN-γ response of CD4+ T-cells to UreB 18mer peptides, MPLA group [1]: primarily recognized

U403–426: UreB region covered by overlapping 18mer peptides (KRYLSKYTINPAIAHGISEYVGSV; UniProt P69996 403-426, looked up, fragment)
IFN-γ response of CD4+ T-cells to UreB 18mer peptides, CpG group [1]: dominant response

KMLELANQIKTNLSAIPQ [hopZ #53]
IFN-γ ELISpot response, day 10 (effective phase) [2]: positive responses
Binding stability for MHC-II [3]: highly stable

U505–522: UreB overlapping 18mer peptide (EELGLERQVLPVKNCRNI; UniProt P69996 505-522, looked up, fragment)
IFN-γ response of CD4+ T-cells to UreB 18mer peptides, MPLA group [1]: primarily recognized

CC(=O)N[C@@H]1[C@@H](O[C@H](C)C(=O)N[C@@H](C)C(=O)N[C@H](CCC(=O)O)C(N)=O)[C@H](O)[C@@H](CO)O[C@H]1O [MDP]
% H. pylori: percentage of bacterial protein abundances in the total whole proteome ([4]; sample (replicate) 1): 0.95%
% H. pylori: percentage of bacterial protein abundances in the total whole proteome ([4]; sample (replicate) 2): 1.04%
% H. pylori: percentage of bacterial protein abundances in the total whole proteome ([4]; sample (replicate) 3): 1.09%
Number of MHC peptides identified ([5]; A20 cells treated with adjuvant + H. pylori antigens 12 hr, 10^8 cells, MHC-II IP, LC-MS/MS, mean of n=3 biological replicates): 3257
Effect of adjuvant on peptide repertoires presented by APCs ([5]; A20 cells, H. pylori antigens + adjuvant 12 hr, immunopeptidome): not

U481–U504: UreB dominant region covered by overlapping 18mer peptides (HHGKAKYDANITFVSQAAYDKGIK; UniProt P69996 481-504, looked up, fragment)
IFN-γ response of CD4+ T-cells to UreB 18mer peptides, no-adjuvant group ([1]; T-cells from mice vaccinated with UreB without adjuvant): dominant region

YVEAVALISAHIMEEAR [ureA #3]
IFN-γ ELISpot response, day 10 (effective phase) [2]: positive responses
Binding stability for MHC-II [3]: highly stable

AFIDAEHALDVHYAKR [recA #23]
IFN-γ ELISpot response, day 28 (memory phase) [2]: not weaker than that of the other peptides
IFN-γ ELISpot response, day 10 (effective phase) [2]: positive responses
Binding stability for MHC-II [3]: low-stability
IFN-γ response of expanded CD4+ T-cells to titrated peptide [6]: more robust CD4^+ T-cell responses at lower peptide concentrations
